Values joined by “and” are separate entries in the source; they are usually repeats but may differ in a detail not shown here. Equal values may be shown once. Read-outs that look alike come from different tables or passages of the source.
Legend:
HepG2 cells [1] = assay: LipidTOX Red PLD assay, qHTS, 1536-well high-content imaging; type: cell-based, Human; conditions: for PLD induction (result in words): HepG2, primary screen and cherry-pick confirmation; for EC50: Homo sapiens; for EC50 / Primary Screen Efficacy: HepG2, 24 h; for Primary Screen Efficacy: LOPAC primary qHTS, % of PLD induction by 19.16 µM amiodarone
Rat brain = conditions: cited from earlier work
HepG2 cells [2] = conditions: cited from earlier work; for EC50: read-out: Literature-Reported EC50
HepG2 cells [3] = assay: CellTiter-Glo cell viability assay; type: cell-based, Human; conditions: for Cell Viability Efficacy (maximum inhibition of cell viability) / Cell Viability IC50: HepG2, 24 h treatment, mean ± SD of three experiments; for IC50: Homo sapiens, HepG2, 24 h, read-out: Cell Viability IC50
I13-35 cells = conditions: read-out: Literature-Reported EC50, cited from earlier work
H4 cells = conditions: cited from earlier work
hERG channel = conditions: cited from earlier work
[4] = read-out: Confirmation EC50 (PLD induction)
[5] = read-out: Primary Screen EC50 (PLD induction)

Molecule | PLD induction (result in words) (HepG2 cells [1]) | EC50 (HepG2 cells [1]; [4]) [µM] | EC50 (HepG2 cells [1]; [5]) [µM] | Cell Viability Efficacy (maximum inhibition of cell viability) (HepG2 cells [3]) | other results
CCN(CC)CCCC(C)Nc1c2ccc(Cl)cc2nc2ccc(OC)cc12 (centres unmarked) [Quinacrine] | induce PLD | 1 ± 0.2 | 5 | – | Literature-Reported: Active at (dose) (Rat brain): Active at 60 mg/kg
CN(C)CCC=C1c2ccccc2CCc2ccccc21 [Amitriptyline] | – | 4.6 ± 0.5 | 10 | – | EC50 (HepG2 cells [2]): 15 µM
CN1CCC[C@@H]1CCO[C@](C)(c1ccccc1)c1ccc(Cl)cc1 [clemastine] | significantly induced PLD formation | – | – | – | –
CC(C)[C@H]1c2ccc(F)cc2CC[C@@]1(CCN(C)CCCc1nc2ccccc2[nH]1)OC(=O)C1CC1 [NNC 55-0396] | – | – | – | 106% and 106.3±4.3% | Primary Screen Efficacy (HepG2 cells [1]): 91.6%
COc1ccc(NC(=O)c2ccc(-c3ccc(-c4noc(C)n4)cc3C)cc2)cc1N1CCN(C)CC1 [GR 127935] | significantly induced PLD formation | 0.8 | 6.3 | 106.7±13.6% | IC50 (HepG2 cells [3]): 42.6 ± 10.3 µM
CN1CCN(C2=Nc3ccccc3Oc3ccc(Cl)cc32)CC1 [lozapine] | positive | – | – | – | –
CSc1ccc2c(c1)C(N1CCN(C)CC1)Cc1ccccc1S2 (centres unmarked) [Methiothepin] | – | – | – | 121.8±9.0% | Primary Screen Efficacy (HepG2 cells [1]): 76.9%
COCC(=O)O[C@]1(CCN(C)CCCc2nc3ccccc3[nH]2)CCc2cc(F)ccc2[C@@H]1C(C)C [Mibefradil] | – | 10.4 ± 3.3 | 4.5 | 97.0±3.3% | IC50 (HepG2 cells [3]): 25.2 ± 4.1 µM
CN(C)CCCC1(c2ccc(F)cc2)OCc2cc(C#N)ccc21 (centres unmarked) [Citalopram] | – | 27.5 ± 3.1 | 10 | – | EC50 (I13-35 cells; I13-35 cells): 38 µM
C=C[C@H]1C[N@@]2CC[C@H]1C[C@@H]2[C@@H](O)c1ccnc2ccc(OC)cc12 [Quinidine] | – | 13.4 ± 2 | 15.8 | – | EC50 (HepG2 cells [2]): 25 µM
CN1CCN(C2=Nc3cc(Cl)ccc3Nc3ccccc32)CC1 [Clozapine] | – | – | – | – | Literature-Reported: Active at (concentration) (HepG2 cells [2]): Active at 16 µM
CN1CCC(=C2c3ccccc3C=Cc3ccccc32)CC1 [cyproheptadine] | identified as novel PLD inducers | – | – | – | –
N=C(N)c1ccc(OCCCCCOc2ccc(C(=N)N)cc2)cc1 [Pentamidine] | – | 2.8 ± 2.4 | 1.4 | – | EC50 (HepG2 cells [2]): 8.3 µM
Cc1c2ccncc2c(C)c2c1[nH]c1ccccc12 [Ellipticine] | – | 9 ± 3.3 | 5 | 102.3±4.0% | IC50 (HepG2 cells [3]): 29.8 ± 2.4 µM
CCN(CC)CCCC(C)Nc1ccnc2cc(Cl)ccc12 (centres unmarked) [Chloroquine] | – | 23.6 | 28.2 | – | EC50 (I13-35 cells): 11.8 µM
CN1CCN(CCCN2c3ccccc3Sc3ccc(C(F)(F)F)cc32)CC1 [trifluoperazine] | positive | – | – | – | –
C[C@@H]1O[C@@H](O[C@H]2C[C@@H](O)[C@]3(CO)[C@H]4[C@H](O)C[C@]5(C)[C@@H](C6=CC(=O)OC6)CC[C@]5(O)[C@@H]4CC[C@]3(O)C2)[C@H](O)[C@H](O)[C@H]1O [Ouabain] | – | 3 ± 1.8 | 0.4 | 43.6±1.1% | Cell Viability Efficacy (maximum inhibition of cell viability) (HepG2 cells [3]; listed as ouabain): 42%; IC50 (HepG2 cells [3]): 0.2 µM
CN(C)C/C=C(/c1ccc(Br)cc1)c1cccnc1 [Zimelidine] | – | 27.4 ± 1.5 | 14.1 | – | EC50 (I13-35 cells; I13-35 cells): 30.4 µM
CC(CCc1ccccc1)NCC(O)c1ccc(O)c(C(N)=O)c1 (centres unmarked) [Labetalol] | – | 24.8 ± 4.9 | 12.6 | – | –
OCCN1CCN(CCCN2c3ccccc3C=Cc3ccccc32)CC1 [opipramol] | identified as novel PLD inducers | – | – | – | –
CN1CCN(c2nc3cc(C(F)(F)F)ccc3n3cccc23)CC1 [CGS-12066A] | – | – | – | 56.7±13.3% | Primary Screen Efficacy (HepG2 cells [1]): 103.7%
COc1ccccc1N1CCN(CCN(C(=O)c2ccc(F)cc2)c2ccccn2)CC1 [p-MPPF] | significantly induced PLD formation | – | – | – | –
CC(CN1c2ccccc2Sc2ccccc21)N(C)C (centres unmarked) [promethazine] | positive | – | – | – | –
Cl.Cl.OCCN1CCN(CC/C=C2/c3ccccc3Sc3ccc(C(F)(F)F)cc32)CC1 [cis-(Z)-Flupenthixol] | significantly induced PLD formation | – | – | 131.7±6.4% | Primary Screen Efficacy (HepG2 cells [1]): 37.3%
COc1cc2nc(N3CCCN(C)CC3)nc(NC3CCN(Cc4ccccc4)CC3)c2cc1OC [BIX 01294] | – | 1.6 ± 0.4 | 3.5 | 98% and 98.6±3.3% | IC50 (HepG2 cells [3]): 10 ± 1.6 µM
CC12CC3CC(C)(C1)CC(N)(C3)C2 [Memantine] | – | 29 ± 1.7 | 12.6 | – | EC50 (I13-35 cells; I13-35 cells): 93.7 µM

Molecule | PLD induction (result in words) (HepG2 cells [1]) | EC50 (HepG2 cells [1]; [4]) [µM] | EC50 (HepG2 cells [1]; [5]) [µM] | Cell Viability Efficacy (maximum inhibition of cell viability) (HepG2 cells [3]) | other results
CC[C@]1(O)C[C@@H]2CN(CCc3c([nH]c4ccccc34)[C@@](C(=O)OC)(c3cc4c(cc3OC)N(C)[C@H]3[C@@](O)(C(=O)OC)[C@H](OC(C)=O)[C@]5(CC)C=CCN6CC[C@]43[C@@H]65)C2)C1 [Vinblastine] | – | 9.5 ± 5.5 | 12.6 | – | Cell Viability IC50 (HepG2 cells [3]): Inactive
CC(C(O)c1ccc(O)cc1)N1CCC(Cc2ccccc2)CC1 (centres unmarked) [Ifenprodil] | – | 12.3 ± 6.7 | 7.9 | 25.5±0.8% | IC50 (HepG2 cells [3]): 21.1 ± 1.7 µM
Fc1ccc([C@@H]2CCNC[C@H]2COc2ccc3c(c2)OCO3)cc1 [Paroxetine] | induce PLD | 3 ± 0.7 | 5.6 | – | Literature-Reported: Active at (concentration) (H4 cells): Active at 5 µM
COc1ccc2c(c1)c(CCN1CCOCC1)c(C)n2C(=O)c1cccc(Cl)c1Cl [GW405833] | – | – | – | 70.0±58.7% | Primary Screen Efficacy (HepG2 cells [1]): 49.4%
OCCN1CCN(CCCN2c3ccccc3Sc3ccc(C(F)(F)F)cc32)CC1 [fluphenazine] | positive | – | – | – | –
CCOC(=O)N1CCC(=C2c3ccc(Cl)cc3CCc3cccnc32)CC1 [Loratadine] | – | – | – | – | Literature-Reported: Active at (concentration) (HepG2 cells [2]): Active at 16 µM
CC(N)Cc1c[nH]c2ccc(OCc3cccs3)cc12 (centres unmarked) [BW 723C86] | – | – | – | 37.7±11.9% | Primary Screen Efficacy (HepG2 cells [1]): 62.2%
COc1ccccc1N1CCN(CCCCN2C(=O)c3ccccc3C2=O)CC1 [NAN-190] | significantly induced PLD formation | 2 ± 0.3 | 2.2 | – | Cell Viability IC50 (HepG2 cells [3]): Inactive
CC(=O)N1CCN(c2ccc(OCC3COC(Cn4ccnc4)(c4ccc(Cl)cc4Cl)O3)cc2)CC1 (centres unmarked) [Ketoconazole] | – | 5.4 ± 2 | 2.8 | – | Literature-Reported: Active at (concentration) (HepG2 cells [2]): Active at 8.3 µM
CN(C)CC/C=C1/c2ccccc2Sc2ccc(Cl)cc21 [chlorprothixene] | significantly induced PLD formation | – | – | – | –
CN1CCN(C2Cc3ccccc3Sc3ccc(Cl)cc32)CC1.O=C(O)/C=C\C(=O)O (centres unmarked) [Octoclothepin] | – | – | – | 121.0±4.9% | Primary Screen Efficacy (HepG2 cells [1]): 135.0%
CC(C)NCC(O)COc1cccc2ccccc12 (racemic) [(±)-Propranolol] | – | – | – | – | Cell Viability IC50 (HepG2 cells [3]): Inactive
NC(N)=NC(=O)c1nc(Cl)c(N2CCCCCC2)nc1N [5-(N,N-hexamethylene) amiloride] | – | – | – | 40.7±4.9% | Primary Screen Efficacy (HepG2 cells [1]): 52.8%
OC(CN1CCC(Cc2ccc(F)cc2)CC1)c1ccc(Cl)cc1 (centres unmarked) [Eliprodil] | – | 9 ± 5 | 10 | 24.6±2.1% | IC50 (HepG2 cells [3]): 26.5 ± 2.2 µM
CNCCCN1c2ccccc2CCc2ccccc21 [Desipramine] | – | 5.1 ± 1.1 | 11.2 | – | EC50 (I13-35 cells; I13-35 cells): 9.1 µM
CC(C)(C)c1ccc(C(=O)CCCN2CCC(OC(c3ccccc3)c3ccccc3)CC2)cc1 [Ebastine] | significantly induced PLD formation | – | – | – | HERG channel block (hERG channel): blocking
CN(C)CCCN1c2ccccc2Sc2ccc(Cl)cc21 [Chlorpromazine] | – | 5.4 ± 1.9 | 10 | – | EC50 (I13-35 cells; I13-35 cells): 4.1 µM
NC12CC3CC(CC(C3)C1)C2 [Amantadine] | – | 3.9 ± 4.5 | 0.9 | – | EC50 (I13-35 cells; I13-35 cells): 239 µM
CN(C)CCC=C1c2ccccc2COc2ccccc21 [Doxepin] | – | – | – | – | Literature-Reported: Active at (concentration) (HepG2 cells [2]): Active at 25 µM
aminobenzotropine | significantly induced PLD formation | – | – | – | –
CC(C)(C)[C@]1(O)CCN2C[C@H]3c4ccccc4CCc4cccc(c43)[C@@H]2C1 [(+)-Butaclamol] | – | – | – | 47.2±18.3% | IC50 (HepG2 cells [3]): 47.8 ± 32.2 µM
CN(C)CCC=C1c2ccccc2C=Cc2ccccc21 [cyclobenzaprine] | identified as novel PLD inducers | – | – | – | –
CN(C)CCCN1c2ccccc2Sc2ccccc21 [Promazine] | – | 5.7 ± 1.9 | 22.4 | – | EC50 (I13-35 cells; I13-35 cells): 5.3 µM
CN1C[C@H](CNC(=O)OCc2ccccc2)C[C@@H]2c3cccc4c3c(cn4C)C[C@H]21 [Metergoline] | – | 5.8 ± 1.3 | 2.5 | 127.9±4.1% | IC50 (HepG2 cells [3]): 62.8 µM
CN(C)CCCN1c2ccccc2CCc2ccccc21 [Imipramine] | – | 20.8 ± 6.9 | 10 | – | EC50 (I13-35 cells; I13-35 cells): 21 µM
COc1cc2nc(N3CCN(C(=O)OCc4ccccc4)[C@H](C(=O)NC(C)(C)C)C3)nc(N)c2cc1OC [L-765,314] | – | – | – | 115.2±0.3% | Primary Screen Efficacy (HepG2 cells [1]): 54.1%

Source: publication PMC4550094 (Journal of biomolecular screening, 2013)
